Drawing on US6818646B2 (priority 2000, dated 2004), this text covers Ki and IC50 for 23 compounds.

Common to all, as to assay type: biochemical
For assay [1], the target named is T1, PDEV (Homo sapiens, UniProt O76074).
T1 construct: PDEV was isolated from rabbit and human tissues according to the protocol described by Boolell et al; from tissue; host or cells: human tissue, homogenate supernatant fractionated on Mono Q
The assay is described as follows: In vitro determination of Ki for phosphodiesterase inhibitors. As to conditions: human tissue; given as 'Ki ='. As for the experimental part:
The assays were adapted to a 96-well format. Phosphodiesterase was assayed in 5 mM MgCl2, 15 mM Tris HCl (pH 7.4), 0.5 mg/ml bovine serum albumin, 30 nM ^3H-cGMP and test compound at various concentrations. The amount of enzyme used for each reaction was such that less than 15% of the initial substrate was converted during the assay period. For all measurements, the test compound was dissolved and diluted in 100% DMSO (2% DMSO in assay). The total volume of the assay was 100 μl. The reaction mixture was incubated at 30° C. for 90 minutes. The reaction was stopped by boiling for 1 minute and then immediately cooled by transfer to an ice bath. To each well was then added 25 μl 1 mg/ml snake venom (Ophiophagus hannah) and the reaction mixture incubating at 30° C. for 10 minute. The reaction was stopped by the addition of 1 ml Bio-Rad AG1-X2 resin slurry (1:3). An aliquot of 200 μl was taken and counted by liquid scintillation.
(§1) The % inhibition of the maximum substrate conversion (by the enzyme in the absence of inhibitor) was calculated for each test compound concentration. Using GraphPad Prism's nonlinear regression analysis (sigmoidal dose response), the % inhibition vs log of the test compound concentration was plotted to determine the IC50. Under conditions where substrate concentration <<Km of the enzyme (Km=substrate concentration at which half of the maximal velocity of the enzyme is achieved), Ki is equivalent to the IC50 value.
(§2) Unless otherwise noted, PDEV inhibitory activities were measured using human tissue. The abbreviation “stereo” refers to the stereogenic configuration, the abbreviation “Rac” shall denote a racemic mixture.

Assay [2] addresses PDEV (Oryctolagus cuniculus, UniProt G1SX67). The assay is described as follows: PDE assay: inhibition of PDEV isolated from rabbit tissue. The settings on record: PDEV inhibitory activity, rabbit tissue (footnote a). The procedure:
(§3) Briefly, rabbit or human tissues were homogenized in an ice-cold buffer solution containing 20 mM HEPES (pH 7.2), 0.25M sucrose, 1 mM EDTA, and 1 mM phenylmethylsulphonyl fluoride (PMSF). The homogenates were centrifuged at 100,000 g for 60 minutes at 4° C. The supernatant was filtered through […] filter and loaded on a Pharmacia Mono Q anion exchange column (1 ml bed volume) that was equilibrated with 20 mM HEPES, 1 mM EDTA and 0.5 mM PMSF. After washing out unbound proteins, the enzymes were eluted with a linear gradient of 100-600 mM NaCl in the same buffer (35 to 50 ml total, depending on the tissue. Enzymes from the skeletal muscle, corpus cavernosum, retina, heart and platelet were eluted with 35, 40, 45, 50, and 50 ml respectively.) The column was run at a flow rate of 1 ml/min and 1 ml fractions were collected. The fractions comprising various PDE activities were pooled separately and used in later studies.
(§4) The assays were adapted to a 96-well format. The enzyme was assayed in 5 mM MgCl2, 15 mM Tris HCl (pH 7.4), 0.5 mg/ml bovine serum albumin, 1 μM cGMP or cAMP, 0.1 μCi [^3H]-cGMP or [^3H]-cAMP, and 2-10 μl of column elution. The total volume of the assay was 100 μl. The reaction mixture was incubated at 30° C. for 30 minutes. The reaction was stopped by boiling for 1 minute and then cooled down on ice. The resulting [^3H]5′-mononucleotides were further converted to uncharged [^3H]-nucleosides by adding 25 μl 1 mg/ml snake venom (Ophiophagus hannah) and incubating at 30° C. for 10 minute. The reaction was stopped by the addition of 1 ml Bio-Rad AG1-X2 resin slurry (1:3). All the charged nucleotides were bound by the resin and only uncharged [^3H]-nucleosides remained in the supernatant after centrifuging. An aliquot of 200 μl was taken and counted by liquid scintillation. PDE activity was expressed as pmol cyclic nucleotide hydrolyzed/min/ml of enzyme preparation.
(§5) Inhibitor studies were carried out in assay buffer with a final concentration of 10% DMSO.
as §1, §2

The target of assay [3] is T1, PDEV. The experiment in a line: PDE assay: inhibition of PDEV isolated from human tissue. As to conditions: PDEV inhibitory activity. As for the experimental part: as §3, §4, §5, §1, §2

Where a name gives a salt, the structure may show the parent alone.

Take `Cc1ncc(-c2cnc(N3Cc4c(nc5ccccc5c4O)C3c3ccc4c(c3)CCO4)nc2)n1Cc1ccccc1` (racemic) [Compound 127, 2-[5-(3-Benzyl-2-methyl-3H-imidazol-4-yl)-pyrimidin-2-yl]-3-(2,3-dihydro-benzofuran-5-yl)-1,2,3,4-tetrahydro-pyrrolo[3,4-b]quinolin-9-one]: on PDEV [1], affinity was put at a Ki of 0.14 nM.

`COc1ccc(-c2cnc(N3Cc4c([nH]c5ccccc5c4=O)[C@@H]3c3ccc4c(c3)OCO4)nc2)cc1OC` [Compound 35, (S)-1,2,3,4-Tetrahydro-2-[5-(3,4-dimethoxyphenyl)-pyrimidin-2-yl]-3-(3,4-methylenedioxyphenyl)-9H-pyrrolo-[3,4-b]quinolin-9-one]: half-maximal inhibition at PDEV [2] (IC50) was put at 1.42 nM.

For `CC(C)(C)OC(=O)N1Cc2c([nH]c3ccccc3c2=O)C1c1ccc2c(c1)OCO2` (racemic) [Compound 3, 1,2,3,4-Tetrahydro-2-(tert-butoxycarbonyl)-3-(3,4-methylenedioxyphenyl)-9H-pyrrolo-[3,4-b]quinolin-9-one], the IC50 (in general, the concentration needed to halve the response being measured) on PDEV [2] is 340 nM.

Compound `O=C(c1ccc(Br)o1)N1Cc2c(nc3ccccc3c2O)C1c1ccc2c(c1)OCO2` (racemic) [Compound 30, 1,2,3,4-Tetrahydro-3-(3,4-methylenedioxyphenyl)-2-(5-(2-bromo)-furoyl)-9H-pyrrolo[3,4-b]quinolin-9-one] had a half-inhibitory concentration (IC50) against PDEV [2] of 5.2 nM.

`O=c1c2c([nH]c3ccccc13)[C@@H](c1ccc3c(c1)OCO3)N(c1ccc(-c3cccc(C(F)(F)F)c3)o1)C2` [Compound 50, (R)-1,2,3,4-Tetrahydro-3-(3,4-methylenedioxyphenyl)-2-[5-(3-trifluoromethylphenyl)furo-2-yl]-9H-pyrrolo-[3,4-b]quinolin-9-one]: the IC50 against PDEV [2] amounted to 0.61 nM.

`O=C(OCc1ccccc1)N1Cc2c(nc3ccccc3c2O)C1c1ccc2c(c1)OCO2` (racemic) [Compound 27, 1,2,3,4-Tetrahydro-2-(benzyloxycarbonyl)-3-(3,4-methylenedioxyphenyl)-9H-pyrrolo-[3,4-b]quinolin-9-one]: the IC50 on PDEV [2] stood at 3.4 nM.

On PDEV [3], `O=c1c2c([nH]c3ccccc13)C(c1ccc3c(c1)OCO3)N(Cc1ccncc1)C2` (racemic) [Compound 5, 1,2,3,4-Tetrahydro-3-(3,4-methylenedioxyphenyl)-2-(pyridin-4-yl)methyl-9H-pyrrolo-[3,4-b]quinolin-9-one] gave a 50% inhibitory concentration (IC50) of 688 nM.

Turning to `COC(=O)c1ccc(/C=C/C(=O)N2Cc3c([nH]c4ccccc4c3=O)C2c2ccc3c(c2)OCO3)cc1` (racemic) [Compound 6, (E)-4-[3-Oxo-3-[1,2,3,4-tetrahydro-3-(3,4-methylenedioxyphenyl)-9H-pyrrolo-[3,4-b]quinolin-9-one-2-yl]-1-propenyl]benzoic Acid Methyl Ester], at PDEV [3], the IC50 was 0.507 nM.

Turning to `O=C(OCc1ccncc1)N1Cc2c([nH]c3ccccc3c2=O)C1c1ccc2c(c1)CCO2` (racemic) [Compound 53, 1,2,3,4-Tetrahydro-2-[(4-pyridinyl)methyloxycarbonyl]-3-(2,3-dihydrobenzofuran-5-yl)-9H-pyrrolo-[3,4-b]quinolin-9-one], 5.34 nM corresponded to half-maximal inhibition against PDEV [2] (IC50).

In turn, `Oc1c2c(nc3ccccc13)[C@@H](c1ccc3c(c1)CCO3)N(c1ncc(-c3ccccn3)cn1)C2` [Compound 76] displayed an IC50 on PDEV [3] of 0.23 nM.

At PDEV [3], `O=C(c1cccnc1O)N1Cc2c([nH]c3ccccc3c2=O)C1c1ccc2c(c1)OCO2` (racemic) [Compound 25, 1,2,3,4-Tetrahydro-3-(3,4-methylenedioxyphenyl)-2-[2-hydroxynicotinoyl)-9H-pyrrolo[3,4-b]-quinolin-9-one] came in with an IC50 of 1.57 nM.

Turning to `O=C(c1ccc(-c2cccc(C(F)(F)F)c2)o1)N1Cc2c([nH]c3ccccc3c2=O)C1c1ccc2c(c1)OCO2` (centres unmarked) [Compound 13, 1,2,3,4-Tetrahydro-3-(3,4-methylenedioxyphenyl)-2-[5-(3-trifluoromethylphenyl)furoyl]-9H-pyrrolo-[3,4-b]quinolin-9-one], the IC50 on PDEV [3] was determined as 0.227 nM.

Consider `Nc1ccc(-c2ccc(C(=O)N3Cc4c([nH]c5ccccc5c4=O)C3c3ccc4c(c3)OCO4)o2)cc1` (racemic) [Compound 26, 1,2,3,4-tetrahydro-3(3,4-methylenedioxyphenyl)2-[5-(4-aminophenyl)-furoyl]-9H-pyrrolo[3,4-b]quinolin-9-one], for which the IC50 on PDEV [3] worked out at 1.92 nM.

Take `O=c1c2c([nH]c3ccccc13)C(c1ccc3c(c1)CCO3)N(c1ncc(-c3ccccn3)cn1)C2` (centres unmarked) [Compound 61]: it took 1.03 nM to reach half-maximal inhibition against PDEV [3] (IC50).

As to `COc1ccc(-c2cnc(N3Cc4c([nH]c5ccccc5c4=O)C3c3ccc(OC)c(OC)c3)nc2)cc1OC` (centres unmarked) [Compound 15, 1,2,3,4-Tetrahydro-[5-(3,4-dimethoxyphenyl)-pyrimidin-2-yl]-3-(3,4-dimethoxyphenyl)-9H-pyrrolo[3,4-b]quinolin-9-one], the half-maximal inhibitory concentration (IC50) against PDEV [3] was 1160 nM.

In turn, `O=C(O)c1ccc(/C=C/C(=O)N2Cc3c([nH]c4ccccc4c3=O)C2c2ccc3c(c2)OCO3)cc1` (racemic) [Compound 8, (E)-4-[3-Oxo-3-[1,2,3,4-tetrahydro-3-(3,4-methylenedioxyphenyl)-9H-pyrrolo-[3,4-b]quinolin-9-one-2-yl]-1-propenyl]benzoic acid] registered an IC50 at PDEV [3] of 0.828 nM.

“(E)-4-[3-Oxo-3-[1,2,3,4-tetrahydro-3-(3,4-methylenedioxyphenyl)-9-methoxy-9H-pyrrolo-[3,4-b]quinolin-2-yl]-1-propenyl]benzoic acid, methyl ester [Compound 64]”: on PDEV [2], the IC50 was determined as 113 nM.

In turn, `O=C(c1ccc(-c2ccccc2)o1)N1Cc2c(nc3ccccc3c2O)C1c1ccc2c(c1)OCO2` (racemic) [Compound 110] came in with an IC50 against PDEV [3] of 0.755 nM.

The compound `O=C(c1cc2ccc(OCCN3CCOCC3)cc2o1)N1Cc2c([nH]c3ccccc3c2=O)C1c1ccc2c(c1)OCO2` (racemic) [Compound 49, hydrochloride salt] displayed an IC50 against PDEV [2] of 1.13 nM.

`COC(=O)c1ccc(/C=C/C(=O)N2Cc3c(n(C)c4ccccc4c3=O)C2c2ccc3c(c2)OCO3)cc1` (racemic) [Compound 63, (E)-4-[3-Oxo-3-[1,2,3,4-tetrahydro-3-(3,4-methylenedioxyphenyl)-4-methyl-9H-pyrrolo-[3,4-b]quinolin-9-one-2-yl]-1-propenyl]benzoic acid, methyl ester] gave an IC50 against PDEV [2] of 511 nM.

As for `CN1CCN(C(=O)c2ccc(-c3ccc(C(=O)N4Cc5c([nH]c6ccccc6c5=O)[C@H]4c4ccc5c(c4)OCO5)o3)cc2)CC1` [Compound 69, (R)-1,2,3,4-Tetrahydro-3-(3,4-methylenedioxyphenyl)-2-(5-(4-(1-(4-methyl)-piperazinylcarbonyl)-phenyl)-furoyl)-9H-pyrrolo[3,4-b]quinolin-9-one], on PDEV [3], the IC50 was found to be 0.32 nM.

`O=c1c2c([nH]c3ccccc13)C(c1ccc3c(c1)OCO3)N(Cc1ccccc1)C2` (racemic) [Compound 54, 1,2,3,4-Tetrahydro-2-benzyl-3-(3,4-methylenedioxyphenyl)-9H-pyrrolo-[3,4-b]quinolin-9-one] yielded an IC50 on PDEV [3] of 234 nM.

The compound `CN1CCN(C(=O)c2ccc(-c3ccc(C(=O)N4Cc5c([nH]c6ccccc6c5=O)C4c4ccc5c(c4)OCO5)o3)cc2)CC1` (centres unmarked) [Compound 44, 1,2,3,4-Tetrahydro-3-(3,4-methylenedioxyphenyl)-2-(5-(4-(1-(4-methyl)piperazinylcarbonyl)-phenyl)-furoyl)-9H-pyrrolo[3,4-b]quinolin-9-one] registered an IC50 at PDEV [3] of 1.58 nM.
